Among the data in ChEMBL document CHEMBL1142805, “Study on supramolecular complexing ability vis-à-vis estimation of pKa of substituted sulfonamides: dominating role of Balaban index (J)” (Bioorg Med Chem Lett, 2005) are pKa values, retold here.

A short description of this series: Protonation constant (Proton-ligand formation constant) was determined. In kind it is ADME.

Broadly, the pKa is the negative logarithm of the acid dissociation constant. High values mean a group that holds its proton tightly, low ones a group that gives up its proton readily.

Consider `O=[N+]([O-])c1ccc(S(=O)(=O)Nc2ccccc2)cc1`, for which the pKa is 6.66.
